Results from US12083124B2 (Incyte Corporation, priority 2019, dated 2024).
Like-named read-outs stand apart in the source and are kept apart here.

Columns and labels:
[1] = target: wild-type un-phosphorylated FGFR3 (Homo sapiens, UniProt P22607); test: FGFR Enzymatic Assay (FRET peptide phosphorylation), FGFR3
[2] = target: wild-type un-phosphorylated FGFR1 (Homo sapiens, UniProt P11362); test: FGFR Enzymatic Assay (FRET peptide phosphorylation), FGFR1; details: read-out: FGFR1; wild-type un-phosphorylated FGFR1; pre-incubated for 4 hours
Description: The inhibitor potency of the exemplified compounds was determined in an enzyme discontinuous assay that measures peptide phosphorylation using FRET measurements to detect product formation. Inhibitors were serially diluted in DMSO and a volume of 0.2 μL was transferred to the wells of a 384-well plate. […] Appropriate controls (enzyme blank and enzyme with no inhibitor) were included on the plate. […] The 10 μL/well reaction concentration of the peptide substrate was 500 nM whereas the ATP concentration was maintained near or below the ATP Km. The ATP Km values were pre-determined in a separate series of experiments. The reaction plate was incubated at 25° C. for 1 hr and the reactions were ended with the addition of 5 μL/well of quench solution (50 mM Tris, 150 mM NaCl, 0.5 mg/mL BSA, pH 7.8; 45 mM EDTA, 600 nM staurosporin, with Perkin Elmer Lance Reagents at 3.75 nM Eu-antibody PY20 and 180 nM APC-Streptavidin). The plate was allowed to equilibrate for ˜10 minutes at ambient temperature before scanning on a PheraStar plate reader (BMG Labtech) instrument.
Either GraphPad prism or XLfit was used to analyze the data. The IC50 values were derived by fitting the data to a four parameter logistic equation producing a sigmoidal dose-response curve with a variable Hill coefficient. Prism equation: Y=Bottom+(Top-Bottom)/(1+10^((Log IC50-X)*Hill slope)); XLfit equation: Y=(A+((B−A)/(1+((X/C)^D)))) where X is the logarithm of inhibitor concentration and Y is the response.
GraphPad prism3 was used to analyze the data. The IC50 values were derived by fitting the data to the equation for a sigmoidal dose-response with a variable slope. Y=Bottom+(Top-Bottom)/(1+10^((Log IC50-X)*Hill Slope)) where X is the logarithm of concentration and Y is the response.
The data in Table 1 was measured in wild-type un-phosphorylated FGFR1, FGFR2, FGFR3, and FGFR4 proteins.

[3] = target: wild-type un-phosphorylated FGFR4 (Homo sapiens, UniProt P22455); test: FGFR Enzymatic Assay (FRET peptide phosphorylation), FGFR4
[4] = target: wild-type un-phosphorylated FGFR2 (Homo sapiens, UniProt P21802); test: FGFR Enzymatic Assay (FRET peptide phosphorylation), FGFR2
[5] = read-out: FGFR4, wild-type un-phosphorylated FGFR4, pre-incubated for 4 hours

Sequence of wild-type un-phosphorylated FGFR2 (P21802 22-821): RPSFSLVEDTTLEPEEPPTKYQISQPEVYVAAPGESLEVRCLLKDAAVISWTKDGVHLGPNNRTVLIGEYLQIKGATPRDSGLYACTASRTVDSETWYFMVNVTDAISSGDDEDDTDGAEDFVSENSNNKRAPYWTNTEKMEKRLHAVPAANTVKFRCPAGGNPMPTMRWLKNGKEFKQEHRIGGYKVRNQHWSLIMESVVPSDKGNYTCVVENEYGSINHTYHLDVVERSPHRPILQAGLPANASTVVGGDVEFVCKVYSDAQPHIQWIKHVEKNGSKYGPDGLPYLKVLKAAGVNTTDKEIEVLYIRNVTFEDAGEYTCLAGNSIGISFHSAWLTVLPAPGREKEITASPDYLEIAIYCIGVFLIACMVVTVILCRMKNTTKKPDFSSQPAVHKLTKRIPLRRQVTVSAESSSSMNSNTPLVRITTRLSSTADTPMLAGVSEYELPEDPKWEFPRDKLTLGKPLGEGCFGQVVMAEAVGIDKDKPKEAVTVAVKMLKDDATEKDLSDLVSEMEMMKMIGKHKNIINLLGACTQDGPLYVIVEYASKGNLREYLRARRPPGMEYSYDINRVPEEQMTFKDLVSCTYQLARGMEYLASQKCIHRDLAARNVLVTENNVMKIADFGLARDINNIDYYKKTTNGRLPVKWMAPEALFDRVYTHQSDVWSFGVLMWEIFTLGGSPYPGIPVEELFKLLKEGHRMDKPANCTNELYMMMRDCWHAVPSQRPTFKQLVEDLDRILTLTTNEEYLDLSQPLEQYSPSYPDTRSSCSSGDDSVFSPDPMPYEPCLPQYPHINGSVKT
Sequence of wild-type un-phosphorylated FGFR3 (P22607 23-806): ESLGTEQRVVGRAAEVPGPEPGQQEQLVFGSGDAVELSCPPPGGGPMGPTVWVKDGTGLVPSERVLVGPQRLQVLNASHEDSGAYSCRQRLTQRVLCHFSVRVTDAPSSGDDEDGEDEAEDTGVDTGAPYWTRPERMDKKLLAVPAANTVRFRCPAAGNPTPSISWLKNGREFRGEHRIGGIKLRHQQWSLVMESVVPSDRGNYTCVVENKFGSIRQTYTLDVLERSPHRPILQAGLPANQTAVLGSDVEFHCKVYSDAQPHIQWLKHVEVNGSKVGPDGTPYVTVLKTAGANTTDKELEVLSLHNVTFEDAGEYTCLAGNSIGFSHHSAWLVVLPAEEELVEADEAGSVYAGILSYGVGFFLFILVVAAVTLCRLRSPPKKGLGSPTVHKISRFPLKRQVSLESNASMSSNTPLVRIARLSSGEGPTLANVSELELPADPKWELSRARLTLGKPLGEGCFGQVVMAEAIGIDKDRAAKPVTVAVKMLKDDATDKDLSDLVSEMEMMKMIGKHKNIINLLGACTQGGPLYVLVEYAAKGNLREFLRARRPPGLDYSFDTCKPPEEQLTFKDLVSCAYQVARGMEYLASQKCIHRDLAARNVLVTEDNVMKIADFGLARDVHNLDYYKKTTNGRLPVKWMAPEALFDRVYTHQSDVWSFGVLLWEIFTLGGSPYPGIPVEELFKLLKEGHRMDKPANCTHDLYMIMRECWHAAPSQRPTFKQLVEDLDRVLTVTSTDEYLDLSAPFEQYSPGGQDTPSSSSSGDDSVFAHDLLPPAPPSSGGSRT
Sequence of wild-type un-phosphorylated FGFR4 (P22455 22-802): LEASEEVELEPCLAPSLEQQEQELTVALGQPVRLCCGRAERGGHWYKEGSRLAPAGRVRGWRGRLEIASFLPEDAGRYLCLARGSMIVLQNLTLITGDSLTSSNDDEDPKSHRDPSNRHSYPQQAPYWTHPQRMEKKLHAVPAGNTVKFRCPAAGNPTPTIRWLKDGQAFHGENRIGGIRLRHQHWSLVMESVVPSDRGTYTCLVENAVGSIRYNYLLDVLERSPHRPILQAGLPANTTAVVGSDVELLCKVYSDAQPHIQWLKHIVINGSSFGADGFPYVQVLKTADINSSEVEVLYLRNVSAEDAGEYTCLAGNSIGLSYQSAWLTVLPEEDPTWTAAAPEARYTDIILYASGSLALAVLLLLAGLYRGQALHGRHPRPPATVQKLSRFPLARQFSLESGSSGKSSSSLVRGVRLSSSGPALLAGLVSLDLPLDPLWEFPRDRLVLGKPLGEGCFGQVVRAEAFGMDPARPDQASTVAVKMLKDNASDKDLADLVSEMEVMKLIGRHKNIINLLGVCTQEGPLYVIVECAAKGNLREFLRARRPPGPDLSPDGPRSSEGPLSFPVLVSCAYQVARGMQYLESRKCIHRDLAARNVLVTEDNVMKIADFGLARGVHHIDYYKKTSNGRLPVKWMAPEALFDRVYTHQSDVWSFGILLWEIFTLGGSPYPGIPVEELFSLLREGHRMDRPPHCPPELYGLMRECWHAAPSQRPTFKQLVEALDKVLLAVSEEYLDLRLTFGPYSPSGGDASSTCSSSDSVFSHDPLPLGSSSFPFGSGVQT
Sequence of wild-type un-phosphorylated FGFR1 (P11362 22-822): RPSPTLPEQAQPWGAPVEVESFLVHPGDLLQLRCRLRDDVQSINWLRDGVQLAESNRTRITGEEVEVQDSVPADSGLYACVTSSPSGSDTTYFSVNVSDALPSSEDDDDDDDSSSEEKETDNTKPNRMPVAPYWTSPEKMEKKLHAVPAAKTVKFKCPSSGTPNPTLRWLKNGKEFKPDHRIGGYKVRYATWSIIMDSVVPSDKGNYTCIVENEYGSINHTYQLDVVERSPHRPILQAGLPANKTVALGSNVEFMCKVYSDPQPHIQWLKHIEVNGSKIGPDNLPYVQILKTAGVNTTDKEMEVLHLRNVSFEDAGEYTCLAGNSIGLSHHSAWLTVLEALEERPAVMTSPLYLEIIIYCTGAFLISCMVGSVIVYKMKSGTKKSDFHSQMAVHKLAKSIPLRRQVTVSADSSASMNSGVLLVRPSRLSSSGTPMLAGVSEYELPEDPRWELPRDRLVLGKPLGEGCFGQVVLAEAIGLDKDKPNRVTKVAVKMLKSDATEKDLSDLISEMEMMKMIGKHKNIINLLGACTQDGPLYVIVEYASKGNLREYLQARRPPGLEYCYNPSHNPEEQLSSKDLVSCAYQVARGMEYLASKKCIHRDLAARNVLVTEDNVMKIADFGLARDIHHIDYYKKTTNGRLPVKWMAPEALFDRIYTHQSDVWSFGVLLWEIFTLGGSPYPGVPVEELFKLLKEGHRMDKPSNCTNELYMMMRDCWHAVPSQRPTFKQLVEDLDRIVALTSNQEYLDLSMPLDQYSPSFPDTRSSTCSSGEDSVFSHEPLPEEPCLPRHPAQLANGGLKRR

Row | Compound | IC50 [1] | IC50 [2] | IC50 [3] | IC50 [4] | IC50 [3, 5]
1 | COc1cc2[nH]nc(-c3cnn(C4CN(C(=O)[C@H]5COCCN5C)C4)c3)c2nc1-c1cccc2c1CCC2 [Example 127, (R)-(3-(4-(5-(2,3-Dihydro-1H-inden-4-yl)-6-methoxy-1H-pyrazolo[4,3-b]pyridin-3-yl)-1H-pyrazol-1-yl)azetidin-1-yl)(4-methylmorpholin-3-yl)methanone] | < 6 nM | 6 to 40 nM | 40 to 100 nM | < 6 nM | –
2 | COc1cc2[nH]nc(-c3cnn(C4CN(C(=O)[C@@H]5COCCN5C)C4)c3)c2nc1-c1cccc2c1CCC2 [Example 128, (S)-(3-(4-(5-(2,3-Dihydro-1H-inden-4-yl)-6-methoxy-1H-pyrazolo[4,3-b]pyridin-3-yl)-1H-pyrazol-1-yl)azetidin-1-yl)(4-methylmorpholin-3-yl)methanone] | < 6 nM | 6 to 40 nM | 40 to 100 nM | < 6 nM | –
3 | COc1cc2[nH]nc(-c3cnn(C4CN(C(=O)[C@H]5CCOC5)C4)c3)c2nc1-c1cccc2c1CCC2 [Example 131, (S)-(3-(4-(5-(2,3-Dihydro-1H-inden-4-yl)-6-methoxy-1H-pyrazolo[4,3-b]pyridin-3-yl)-1H-pyrazol-1-yl)azetidin-1-yl)(tetrahydrofuran-3-yl)methanone] | < 6 nM | 6 to 40 nM | – | < 6 nM | 6 to 40 nM
4 | COc1cc2[nH]nc(-c3cnn(C4CN(C(=O)C[C@@H](C)O)C4)c3)c2nc1-c1cccc2c1CCC2 [Example 134, (R)-1-(3-(4-(5-(2,3-Dihydro-1H-inden-4-yl)-6-methoxy-1H-pyrazolo[4,3-b]pyridin-3-yl)-1H-pyrazol-1-yl)azetidin-1-yl)-3-hydroxybutan-1-one] | < 6 nM | 6 to 40 nM | 40 to 100 nM | < 6 nM | –
5 | COc1cc2[nH]nc(-c3cnn(C4CN(C(=O)[C@H]5C[C@@](C)(O)C5)C4)c3)c2nc1-c1cccc2c1CCC2 [Example 136, (3-(4-(5-(2,3-Dihydro-1H-inden-4-yl)-6-methoxy-1H-pyrazolo[4,3-b]pyridin-3-yl)-1H-pyrazol-1-yl)azetidin-1-yl)((1s,3s)-3-hydroxy-3-methylcyclobutyl)methanone] | < 6 nM | 6 to 40 nM | – | < 6 nM | 6 to 40 nM
6 | COc1cc2[nH]nc(-c3cnn([C@@H]4CCN(C(=O)[C@@H]5COCCN5C)C4)c3)c2nc1-c1cccc2c1CCC2 [Example 137, ((R)-3-(4-(5-(2,3-Dihydro-1H-inden-4-yl)-6-methoxy-1H-pyrazolo[4,3-b]pyridin-3-yl)-1H-pyrazol-1-yl)pyrrolidin-1-yl)((S)-4-methylmorpholin-3-yl)methanone] | < 6 nM | 6 to 40 nM | 40 to 100 nM | < 6 nM | –
7 | COc1cc2[nH]nc(-c3cnn(C4CN(C(=O)C5(CO)CCC5)C4)c3)c2nc1-c1cccc2c1CCC2 [Example 139, (3-(4-(5-(2,3-Dihydro-1H-inden-4-yl)-6-methoxy-1H-pyrazolo[4,3-b]pyridin-3-yl)-1H-pyrazol-1-yl)azetidin-1-yl)(1-(hydroxymethyl)cyclobutyl)methanone] | < 6 nM | 6 to 40 nM | – | < 6 nM | 6 to 40 nM
8 | CCN1CC[C@H]1C(=O)N1CC(n2cc(-c3n[nH]c4cc(OC)c(-c5cccc6c5CCC6)nc34)cn2)C1 [Example 140, (S)-(3-(4-(5-(2,3-dihydro-1H-inden-4-yl)-6-methoxy-1H-pyrazolo[4,3-b]pyridin-3-yl)-1H-pyrazol-1-yl)azetidin-1-yl)(1-ethylazetidin-2-yl)methanone] | < 6 nM | 6 to 40 nM | 40 to 100 nM | < 6 nM | –
9 | COc1cc2[nH]nc(-c3cnn([C@H]4CCN(C(=O)[C@H]5C[C@@H](O)C5)C4)c3)c2nc1-c1cccc2c1CCC2 [Example 145, ((S)-3-(4-(5-(2,3-Dihydro-1H-inden-4-yl)-6-methoxy-1H-pyrazolo[4,3-b]pyridin-3-yl)-1H-pyrazol-1-yl)pyrrolidin-1-yl)((cis)-3-hydroxycyclobutyl)methanone] | < 6 nM | 6 to 40 nM | – | < 6 nM | 6 to 40 nM

The remaining lines, values ahead:

Row | IC50 [1] | IC50 [2] | IC50 [3] | IC50 [4] | IC50 [3, 5] | Compound
10 | < 6 nM | 6 to 40 nM | – | < 6 nM | 6 to 40 nM | COc1cc2[nH]nc(-c3cnn([C@H]4CCN(C(=O)CO)C4)c3)c2nc1-c1cccc2c1CCC2 [Example 129, (S)-1-(3-(4-(5-(2,3-Dihydro-1H-inden-4-yl)-6-methoxy-1H-pyrazolo[4,3-b]pyridin-3-yl)-1H-pyrazol-1-yl)pyrrolidin-1-yl)-2-hydroxyethan-1-one]
11 | < 6 nM | 6 to 40 nM | – | < 6 nM | 6 to 40 nM | COc1cc2[nH]nc(-c3cnn(C4CN(C(=O)[C@@H]5CCCO5)C4)c3)c2nc1-c1cccc2c1CCC2 [Example 130, (S)-(3-(4-(5-(2,3-Dihydro-1H-inden-4-yl)-6-methoxy-1H-pyrazolo[4,3-b]pyridin-3-yl)-1H-pyrazol-1-yl)azetidin-1-yl)(tetrahydrofuran-2-yl)methanone]
12 | < 6 nM | 6 to 40 nM | 40 to 100 nM | < 6 nM | – | COc1cc2[nH]nc(-c3cnn([C@H]4CCN(C(=O)[C@@H](C)O)C4)c3)c2nc1-c1cccc2c1CCC2 [Example 132, (R)-1-((S)-3-(4-(5-(2,3-Dihydro-1H-inden-4-yl)-6-methoxy-1H-pyrazolo[4,3-b]pyridin-3-yl)-1H-pyrazol-1-yl)pyrrolidin-1-yl)-2-hydroxypropan-1-one]
13 | < 6 nM | 6 to 40 nM | 40 to 100 nM | < 6 nM | – | COc1cc2[nH]nc(-c3cnn([C@H]4CCN(C(=O)[C@H](C)O)C4)c3)c2nc1-c1cccc2c1CCC2 [Example 133, (S)-1-((S)-3-(4-(5-(2,3-Dihydro-1H-inden-4-yl)-6-methoxy-1H-pyrazolo[4,3-b]pyridin-3-yl)-1H-pyrazol-1-yl)pyrrolidin-1-yl)-2-hydroxypropan-1-one]
14 | < 6 nM | 6 to 40 nM | – | < 6 nM | 6 to 40 nM | COc1cc2[nH]nc(-c3cnn(C4CN(C(=O)[C@H]5C[C@](C)(O)C5)C4)c3)c2nc1-c1cccc2c1CCC2 [Example 135, (3-(4-(5-(2,3-Dihydro-1H-inden-4-yl)-6-methoxy-1H-pyrazolo[4,3-b]pyridin-3-yl)-1H-pyrazol-1-yl)azetidin-1-yl)((1r,3r)-3-hydroxy-3-methylcyclobutyl)methanone]
15 | < 6 nM | 6 to 40 nM | 40 to 100 nM | < 6 nM | – | COc1cc2[nH]nc(-c3cnn([C@H]4CCN(C(=O)[C@H]5COCCN5C)C4)c3)c2nc1-c1cccc2c1CCC2 [Example 138, ((S)-3-(4-(5-(2,3-Dihydro-1H-inden-4-yl)-6-methoxy-1H-pyrazolo[4,3-b]pyridin-3-yl)-1H-pyrazol-1-yl)pyrrolidin-1-yl)((R)-4-methylmorpholin-3-yl)methanone]
16 | < 6 nM | 6 to 40 nM | – | < 6 nM | 6 to 40 nM | COc1cc2[nH]nc(-c3cnn(C4CN(C(=O)[C@@H]5CCN5CCF)C4)c3)c2nc1-c1cccc2c1CCC2 [Example 141, (S)-(3-(4-(5-(2,3-Dihydro-1H-inden-4-yl)-6-methoxy-1H-pyrazolo[4,3-b]pyridin-3-yl)-1H-pyrazol-1-yl)azetidin-1-yl)(1-(2-fluoroethyl)azetidin-2-yl)methanone]
17 | < 6 nM | 6 to 40 nM | 40 to 100 nM | < 6 nM | – | COc1cc2[nH]nc(-c3cnn(C4CN(C(=O)[C@@H]5CCN5C(C)C)C4)c3)c2nc1-c1cccc2c1CCC2 [Example 142, (S)-(3-(4-(5-(2,3-Dihydro-1H-inden-4-yl)-6-methoxy-1H-pyrazolo[4,3-b]pyridin-3-yl)-1H-pyrazol-1-yl)azetidin-1-yl)(1-isopropylazetidin-2-yl)methanone]
18 | < 6 nM | 6 to 40 nM | – | < 6 nM | 6 to 40 nM | COc1cc2[nH]nc(-c3cnn([C@H]4CCN(C(=O)[C@@H]5CCN5CCF)C4)c3)c2nc1-c1cccc2c1CCC2 [Example 143, ((S)-3-(4-(5-(2,3-dihydro-1H-inden-4-yl)-6-methoxy-1H-pyrazolo[4,3-b]pyridin-3-yl)-1H-pyrazol-1-yl)pyrrolidin-1-yl)((S)-1-(2-fluoroethyl)azetidin-2-yl)methanone]
19 | < 6 nM | 6 to 40 nM | – | < 6 nM | 6 to 40 nM | COc1cc2[nH]nc(-c3cnn([C@H]4CCN(C(=O)[C@H]5C[C@H](O)C5)C4)c3)c2nc1-c1cccc2c1CCC2 [Example 144, ((S)-3-(4-(5-(2,3-Dihydro-1H-inden-4-yl)-6-methoxy-1H-pyrazolo[4,3-b]pyridin-3-yl)-1H-pyrazol-1-yl)pyrrolidin-1-yl)((trans)-3-hydroxycyclobutyl)methanone]
20 | < 6 nM | 6 to 40 nM | – | < 6 nM | 6 to 40 nM | COc1cc2[nH]nc(-c3cnn([C@H]4CCN(C(=O)[C@H]5C[C@@](C)(O)C5)C4)c3)c2nc1-c1cccc2c1CCC2 [Example 146, ((S)-3-(4-(5-(2,3-Dihydro-1H-inden-4-yl)-6-methoxy-1H-pyrazolo[4,3-b]pyridin-3-yl)-1H-pyrazol-1-yl)pyrrolidin-1-yl)((1s,3r)-3-hydroxy-3-methylcyclobutyl)methanone]
21 | < 6 nM | 6 to 40 nM | 40 to 100 nM | < 6 nM | – | COCC(=O)N1CC(n2cc(-c3n[nH]c4cc(OC)c(-c5cccc6c5CCC6)nc34)cn2)C1 [Example 147, 1-(3-(4-(5-(2,3-Dihydro-1H-inden-4-yl)-6-methoxy-1H-pyrazolo[4,3-b]pyridin-3-yl)-1H-pyrazol-1-yl)azetidin-1-yl)-2-methoxyethan-1-one]
